Like-named read-outs stand apart in the source and are kept apart here.
Columns and labels:
SW480 cells = test: DCFH-DA assay, cellular ROS levels; assay type: cell-based, human; details: for Effect on intracellular ROS levels: 2 h, concentration dependent
Experimental: For this approach, SW480 cells were subjected to the 2′,7′-dichlorofluorescin-diacetate (DCFH-DA) assay.
SW480 colon adenocarcinoma cells were trypsinized for 5 min in a humidified incubator at 37°C and under a 5% CO2 atmosphere. Supplemented MEM was added to stop trypsinization, and cells were centrifuged for 3 min at 1200 rpm (Heraeus Megafuge 1.0R). After cell counting, SW480 cells were seeded in 100-μL aliquots in densities of 2.5 × 10^4 cells/well into 96-well clear flat-bottom microplates (CytoOne, TC-treated, from Starlab). After incubation for 24 h, cells were washed with 200 μL of Hanks' balanced salt solution (HBSS; Sigma-Aldrich; supplemented with 1% heat-inactivated FCS). […] After washing cells with 200 μL of supplemented HBSS, serially diluted test compounds in phenol-red-free Opti-MEM (Gibco), supplemented with 1% heat-inactivated FCS, were added in 200-μl triplicates and tert-butyl hydroperoxide (TBHP) was applied as positive control. […] Blank-corrected values were calculated relative to negative controls (treated with drug-free supplemented Opti-MEM) from three independent experiments.

[1] = test system: CH1/PA-1 ovarian teratocarcinoma cells; parameters: method as in PMID 38426897; details: MTT assay, exposure time 96 h; ref [5]; read-out: 50% inhibitory concentration CH1 (chlorido complexes, reference) (converted); cited from earlier work
[2] = test system: SW480 colon adenocarcinoma cells; parameters: method as in PMID 38426897; details: MTT assay, exposure time 96 h; ref [5]; read-out: 50% inhibitory concentration SW480 (chlorido complexes, reference) (converted); cited from earlier work
[3] = test system: A549 lung adenocarcinoma cells; parameters: method as in PMID 38426897; details: MTT assay, exposure time 96 h; ref [5]; read-out: 50% inhibitory concentration A549 (chlorido complexes, reference) (converted); cited from earlier work
[4] = test system: SW480 colon adenocarcinoma cells; test: MTT assay, inhibition of cancer cell growth, SW480; details: read-out: 50% inhibitory concentration SW480, exposure time 96 h
Experimental: (§2) CH1/PA-1 ovarian teratocarcinoma cells (CH1, RRID: CVCL_4992, provided by L. R. Kelland, CRC Center for Cancer Therapeutics, Institute of Cancer Research, Sutton, UK; confirmed by STR profiling as PA-1 ovarian teratocarcinoma cells at Multiplexion, Heidelberg, Germany), SW480 colon adenocarcinoma (RRID: CVCL_0546), and A549 lung adenocarcinoma cells (NCI-H2618, RRID: CVCL_A549; both cell lines were obtained from the American Type Culture Collection (ATCC), Manassas, VA, USA) were grown as adherent cultures in 75-cm^2 culture flasks (Starlab, Hamburg, Germany) by using minimal essential medium (MEM) supplemented with 1 mM sodium pyruvate, 4 mM L-glutamine, 1% (v/v) nonessential amino acids from 100-fold stock (all purchased from Sigma-Aldrich), and 10% heat-inactivated fetal bovine serum (Serana, Pessin, Germany).
(§3) The 3-(4,5-dimethylthiazol-2-yl)-2,5-diphenyl-2H tetrazolium bromide (MTT, Acros Organics, Geel, Belgium) assay was used to detect the cytotoxicity of the compounds after 96-h incubation. For this purpose, cells were harvested from culture flasks by trypsinization, seeded in 100-μL aliquots into 96-well microculture plates (Starlab, UK) in densities of 1 × 10^3 (CH1/PA-1), 2 × 10^3 (SW480), and 3 × 10^3 (A549) cells per well and incubated for 24 h prior to exposure to the test compounds. Stock solutions of test compounds were prepared in DMF, which were then diluted in MEM (not to exceed a final content of 0.5% v/v of organic solvent in the test plates), and serial dilutions were added in aliquots of 100 μL per well. […] After incubation for 4 h, the medium/MTT mixtures were removed, and the produced formazan crystals were dissolved in 150 μL DMSO per well. Optical densities at 550 nm were measured spectrophotometrically with a ELx808 Absorbance Microplate Reader (Bio-Tek, Winooski, VT, USA) by using a reference wavelength of 690 nm to correct for unspecific absorption.

[5] = test system: HCT116 colorectal cancer cell line (2D); test: Resazurin assay, HCT116 2D (monolayer) culture; details: read-out: IC50 2D, resazurin assay, 96 h exposure
[6] = test system: A549 lung adenocarcinoma cells; test: MTT assay, inhibition of cancer cell growth, A549; details: read-out: 50% inhibitory concentration A549, exposure time 96 h
Experimental: as §2, §3

[7] = test system: CH1/PA-1 ovarian teratocarcinoma cells; test: MTT assay, inhibition of cancer cell growth, CH1/PA-1; details: read-out: 50% inhibitory concentration CH1, exposure time 96 h
Experimental: as §2, §3

[8] = test system: HCT116 multicellular tumor spheroids (3D); test: Resazurin assay, HCT116 3D multicellular tumor spheroids; details: read-out: IC50 3D; HCT116 3D spheroids, resazurin assay, 96 h exposure
Experimental: Both models were investigated by the fluorimetric resazurin assay after 96-h exposure.
HCT116 colorectal carcinoma cells (RRID:CVCL_0291 from ATCC) were cultivated in McCoy's 5A medium, supplemented with 10% heat-inactivated fetal bovine serum and 4 mM L-glutamine.
For 2D experiments, HCT116 cells were harvested from culture flasks by trypsinization, seeded in 100-μL aliquots into 96-well microculture plates (CytoOne, TC-treated, from Starlab) in densities of 2 × 10^3 cells per well, and incubated for 24 h prior to exposure to the test compounds. […] Stock solutions of test compounds were prepared in DMF, which were then diluted in McCoy's 5A-supplemented medium (not to exceed a final content of 0.5% v/v of organic solvent in the test plates), and serial dilutions were added in aliquots of 100 μL per well. […] After incubation for 4 h, fluorescence was measured with a microplate reader (Bio-Tek, SynergyHT) at a wavelength of 530 nm, additionally using a reference wavelength of 620 nm.

Solubility in 1% DMF/PBS = test: Solubility in 1% DMF/PBS
Text: Solubility is an important factor for the application of metallodrugs. DMF was used as solubilizer to allow comparison to the respective chlorido complexes where the usage of DMSO would lead to stable DMSO adducts.
(§1) As the coordinated p-cym and leaving groups are present in all synthesized complexes, we focused on the differently substituted 4-phenylthiazoles for estimated changes in lipophilicity.

SW480 cancer cells = test: Cellular accumulation (ICP-MS) in SW480 cells; details: 50 μM, 0.5% DMF in MEM, SW480, exposure time 2 h
Experimental: as §1
Cellular accumulation of the compounds was studied based on a method described previously with modifications. 1.8 × 10^5 SW480 cells per well were seeded in aliquots of 1 mL of complete MEM (see above) into 12-well plates (CytoOne, tissue culture treated, Starlab) and incubated at 37°C for 24 h. Then, cells were exposed for 2 h at 37°C to 50 μM solutions of the test compounds (containing 0.5% DMF) in fresh 0.5 mL of complete MEM upon exchange of the medium. Afterward, cells were washed three times with 1 mL PBS per well, lysed with 0.4 mL sub-boiled HNO3 per well for 1 h at room temperature, and 0.3 mL of each sample was diluted with 7.7 mL Milli-Q water. Adsorption/desorption controls were prepared in the same manner in cell-free wells. Ruthenium content was quantified by ICP-MS using an ICP-quadrupole MS Agilent 7800 instrument (Agilent Technologies, Waldbronn, Germany) as described previously.

[9] = test system: G4 forming sequences (h-Telo, bcl2, hTERT, Kit1, Kit2) and dsDNA; test: FRET melting assay, G-quadruplex / B-DNA interaction; assay type: binding, human; details: 60 mM potassium cacodylate pH 7.4, 2 h incubation
Experimental: G4s are DNA secondary motifs that play crucial roles in cancer development. […] The complexes were incubated with different G4 forming sequences: one derived from human telomere-forming (h-Telo) and four corresponding to promoter regions of oncogenes, namely, bcl2, hTERT, Kit1, and Kit2. For comparison, a self-complementary sequence called dsDNA was used to represent B-DNA (Table S2).
FRET experiments were conducted using an Applied Biosystems QuantStudio 6 PCR cycler in a 96-well format equipped with a FAM (6-carboxyfluorescein) filter. Oligonucleotide stock solutions, labelled with FAM and TAMRA (6-carboxytetramethylrhodamine) probes, were diluted to the desired concentration in a 60-mM potassium cacodylate buffer (pH 7.4). To fold the oligonucleotides into their B-DNA or G4 topologies, the solutions were heated to 95°C for 5 min and then allowed to cool slowly to room temperature overnight. The final concentration of the oligonucleotides was 0.2 μM, with a total volume of 30 μL in each well. Metal complexes were dissolved in DMF to prepare 2 mM stock solutions and further diluted with the buffer, where DMF concentration never exceeded 0.05%. Mixtures of oligonucleotides and metal compounds were left at room temperature for 2 h. Data were collected twice, each time in duplicate, over a temperature range of 25°C–95°C, with a ramp of 1°C every 30 s. FAM emission data were normalized from 0 to 1 to compare different datasets. After data normalization, we extrapolated the T1/2 values, i.e., the temperature at which normalized FAM emission is 0.5. The DNA concentration is expressed in strands.

Structure (SMILES) | IC50 [1] [µM] | IC50 [2] [µM] | IC50 [3] [µM] | IC50 [4] [µM] | IC50 [6] [µM] | IC50 [7] [µM] | also measured
CC(C)(C)OO [positive control, tert-butyl hydroperoxide, reference compound] |  |  |  |  |  |  | Elevation of ROS levels vs negative control (SW480 cells; positive control): more than 3 fold
Cc1ccc(C(C)C)cc1.Fc1ccc(-c2cscn2)[c]([Os][Cl])c1 [Compound 2b] | 2 | 7.1 | 10 |  |  |  | 
Cc1ccc(C(C)C)cc1.Cn1cc[n+]([Os-]2[c]3cc(S(C)(=O)=O)ccc3-c3csc[n+]32)c1.O=[N+]([O-])[O-] [Compound 4c, [((3-κN)-1-Methylimidazole)(4-(4-(methylsulfonyl)phenyl)thiazolato-κN,κC2′)(η^6-p-cymene)osmium(II)] Nitrate] |  |  |  | > 200 | > 200 | > 200 | Effect on intracellular ROS levels (SW480 cells): initially lowers ROS levels; IC50 [5]: > 200 µM; IC50 [8]: 344 ± 19 µM
COc1ccc2[c](c1)[Ru-]([n+]1ccn(C)c1)[n+]1cscc1-2.Cc1ccc(C(C)C)cc1.O=[N+]([O-])[O-] [Compound 3e, [((3-κN)-1-Methylimidazole)(4-(4-methoxyphenyl)thiazolato-κN,κC2′)(η^6-p-cymene)ruthenium(II)] Nitrate] |  |  |  | 5.5 ± 2.2 | 14 ± 1 | 1.8 ± 0.3 | Solubility (Solubility in 1% DMF/PBS): 15.6 mM; Cellular accumulation, fg Ru/cell (SW480 cancer cells): 246 ± 47 fg Ru/cell
CS(=O)(=O)c1ccc(-c2cscn2)[c]([Os][Cl])c1.Cc1ccc(C(C)C)cc1 [Compound 2c] | 0.83 | 4.4 | 10 |  |  |  | 
Cc1ccc(-c2cscn2)[c]([Os][Cl])c1.Cc1ccc(C(C)C)cc1 [Compound 2d] | 3.7 | 9.3 | 17 |  |  |  | 
Cc1ccc(C(C)C)cc1.[Cl][Os][c]1ccccc1-c1cscn1 [Compound 2a] | 3 | 9.3 | 17 |  |  |  | 
COc1ccc(-c2cscn2)[c]([Os][Cl])c1.Cc1ccc(C(C)C)cc1 [Compound 2e] | 2.2 | 7.1 | 14 |  |  |  | 
COc1ccc2[c](c1)[Os-]([n+]1ccn(C)c1)[n+]1cscc1-2.Cc1ccc(C(C)C)cc1.O=[N+]([O-])O [Compound 4e, [((3-κN)-1-Methylimidazole)(4-(4-methoxyphenyl)thiazolato-κN,κC2′)(η^6-p-cymene)osmium(II)] Nitrate] |  |  |  | 8.1 ± 2.6 | 24 ± 1 | 2.1 ± 0.5 | 
Cc1ccc(C(C)C)cc1.Cc1ccc2[c](c1)[Ru-]([n+]1ccn(C)c1)[n+]1cscc1-2.O=[N+]([O-])[O-] [Compound 3d, [((3-κN)-1-Methylimidazole)(4-(4-methylphenyl)thiazolato-κN,κC2′)(η^6-p-cymene)ruthenium(II)] Nitrate] |  |  |  | 3.8 ± 0.3 | 7.2 ± 1 | 1.61 ± 0.04 | Stabilization of oligonucleotides (G4s or B-DNA) [9]: No stabilization; Solubility (Solubility in 1% DMF/PBS): 8.92 mM; Cellular accumulation, fg Ru/cell (SW480 cancer cells): 477 ± 47 fg Ru/cell
Cc1ccc(C(C)C)cc1.Cn1cc[n+]([Os-]2[c]3cc(F)ccc3-c3csc[n+]32)c1.O=[N+]([O-])O [Compound 4b, [((3-κN)-1-Methylimidazole)(4-(4-fluorophenyl)thiazolato-κN,κC2′)(η^6-p-cymene)osmium(II)] Nitrate] |  |  |  | 7.4 ± 2.3 | 20 ± 2 | 2.7 ± 0.2 | 
Cc1ccc(C(C)C)cc1.Cc1ccc2[c](c1)[Os-]([n+]1ccn(C)c1)[n+]1cscc1-2.O=[N+]([O-])O [Compound 4d, [((3-κN)-1-Methylimidazole)(4-(4-methylphenyl)thiazolato-κN,κC2′)(η^6-p-cymene)osmium(II)] Nitrate] |  |  |  | 3.4 ± 0.9 | 7.1 ± 0.6 | 1.2 ± 0.2 | 
Cc1ccc(C(C)C)cc1.Cn1cc[n+]([Ru-]2[c]3cc(F)ccc3-c3csc[n+]32)c1.O=[N+]([O-])[O-] [Compound 3b, [((3-κN)-1-Methylimidazole)(4-(4-fluorophenyl)thiazolato-κN,κC2′)(η^6-p-cymene)ruthenium(II)] Nitrate] |  |  |  | 7.9 ± 1.5 | 20 ± 3 | 2.8 ± 0.2 | Solubility (Solubility in 1% DMF/PBS): 8.82 mM; Cellular accumulation, fg Ru/cell (SW480 cancer cells): 470 ± 71 fg Ru/cell
COc1ccc(-c2cscn2)[c]([Ru][Cl])c1.Cc1ccc(C(C)C)cc1 [Compound 1e] | 7.3 | 17 | 27 |  |  |  | 
Cc1ccc(C(C)C)cc1.Cn1cc[n+]([Os-]2[c]3ccccc3-c3csc[n+]32)c1.O=[N+]([O-])[O-] [Compound 4a, [((3-κN)-1-Methylimidazole)(4-phenylthiazolato-κN,κC2′)(η^6-p-cymene)osmium(II)] Nitrate] |  |  |  | 5.9 ± 1.9 | 12 ± 1 | 2.3 ± 0.2 | Effect on intracellular ROS levels (SW480 cells): initially lowers ROS levels; IC50 [5]: 9.6 ± 1.2 µM; IC50 [8]: 9.4 ± 4.6 µM
Cc1ccc(C(C)C)cc1.Fc1ccc(-c2cscn2)[c]([Ru][Cl])c1 [Compound 1b] | 3.4 | 8.6 | 16 |  |  |  | 
